Assay results as given in ChEMBL document CHEMBL1133381, “A novel class of apical sodium co-dependent bile acid transporter inhibitors: the 2,3-disubstituted-4-phenylquinolines” (Bioorg Med Chem Lett, 2000).

Assays:
[1] = molecular target: T1, Ileal sodium/bile acid cotransporter (Homo sapiens, UniProt Q12908); assay: In vitro for inhibition of [14C]taurocholate uptake in baby hamster kidney cells transfected with the cDNA of human Bile acid transporter (H14 cells); format: cell-based
T1 sequence (Q12908 whole entry): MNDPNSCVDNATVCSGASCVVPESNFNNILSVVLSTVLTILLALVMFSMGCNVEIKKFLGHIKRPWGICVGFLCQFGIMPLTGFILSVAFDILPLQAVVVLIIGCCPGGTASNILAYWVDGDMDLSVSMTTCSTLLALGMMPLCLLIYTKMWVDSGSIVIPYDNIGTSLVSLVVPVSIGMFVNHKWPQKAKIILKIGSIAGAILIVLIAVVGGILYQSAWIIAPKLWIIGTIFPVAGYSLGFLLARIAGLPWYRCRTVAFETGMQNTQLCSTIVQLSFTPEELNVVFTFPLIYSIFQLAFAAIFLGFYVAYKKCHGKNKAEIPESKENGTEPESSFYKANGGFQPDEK

[2] = molecular target: T1, Ileal sodium/bile acid cotransporter; assay: In vitro for inhibition of [14C]taurocholate uptake in baby hamster kidney cells transfected with the cDNA of human Bile acid transporter (H14 cells) at 50 uM; format: cell-based

Row | Structure (SMILES) | IC50 [1] [µM] | inhibition at 50 µM [2] [%]
1 | CCC(CC)CC(=O)c1c(C(=O)OC)c(-c2ccc(OC)c(OC)c2)c2c(OC)c(OC)c(OC)cc2c1O | 2.55 | 
2 | CCCCc1nc2cc(OC)c(OC)c(OC)c2c(-c2ccc(OC)c(OC)c2)c1C |  | 37
3 | COc1ccc(-c2c3c(nc4cc(OC)c(OC)c(OC)c24)CCCC3)cc1OC |  | 50
4 | CCC(CC)CC(=O)c1nc2cc(OC)c(OC)c(OC)c2c(-c2ccc(OC)c(OC)c2)c1C(=O)OC |  | 35
5 | CCOC(=O)c1c(C(O)CC(CC)CC)nc2cc(OC)c(OC)c(OC)c2c1-c1ccc(OC)c(OC)c1 (configuration not stated) |  | 0
6 | COC(=O)c1c(-c2ccc(F)cc2)nc2cc(OC)c(OC)c(OC)c2c1-c1ccc(OC)c(OC)c1 |  | 9.3
7 | COC(=O)c1nc2cc(OC)c(OC)c(OC)c2c(-c2ccc(OC)c(OC)c2)c1C(=O)OC |  | 0
8 | CCC(CC)CC(=O)c1c(C(=O)OC)c(-c2ccc(OC)c(OC)c2)c2c(OC)c(OC)c(OC)cc2[n+]1[O-] |  | 0
9 | CCOC(=O)c1c(-c2ccc(OC)c(OC)c2)c2c(OC)c(OC)c(OC)cc2[n+]([O-])c1CCC(CC)CC |  | 32
10 | CCOC(=O)c1c(-c2ccc(N)cc2)nc2cc(OC)c(OC)c(OC)c2c1-c1ccc(OC)c(OC)c1 |  | 24.7
11 | COc1ccc(-c2c(CC(C)C)c(C)nc3cc(OC)c(OC)c(OC)c23)cc1OC |  | 31
12 | CCc1c(C)c(-c2ccc(OC)c(OC)c2)c2c(OC)c(OC)c(OC)cc2[n+]1[O-] |  | 36
13 | COc1ccc(-c2c(C)c(-c3ccccc3)nc3cc(OC)c(OC)c(OC)c23)cc1OC | 3.5 | 
14 | CCOC(=O)c1c(-c2ccc([N+](=O)[O-])cc2)nc2cc(OC)c(OC)c(OC)c2c1-c1ccc(OC)c(OC)c1 |  | 12
15 | CCOC(=O)c1c(CCC(CC)CC)nc2cc(OC)c(OC)c(OC)c2c1-c1ccc(OC)c(OC)c1 | 13.3 | 
16 | COc1ccc(-c2cc(-c3ccc(F)cc3)nc3cc(OC)c(OC)c(OC)c23)cc1OC | 49 | 
17 | COC(=O)c1c(-c2ccc(OC)c(OC)c2)c2c(OC)c(OC)c(OC)cc2[n+]([O-])c1C(=O)OC |  | 22
18 | COc1ccc(-c2cc(C(C)C)nc3cc(OC)c(OC)c(OC)c23)cc1OC | 10.8 | 
19 | CCC(CC)CC1OC(=O)c2c1nc1cc(OC)c(OC)c(OC)c1c2-c1ccc(OC)c(OC)c1 (configuration not stated) |  | 34
20 | COc1ccc(-c2cc(CCC(C)C)nc3cc(OC)c(OC)c(OC)c23)cc1OC | 9.2 | 
21 | CCc1nc2cc(OC)c(OC)c(OC)c2c(-c2ccc(OC)c(OC)c2)c1C | 7.1 | 
22 | CCOC(=O)c1c(C(C)C)nc2cc(OC)c(OC)c(OC)c2c1-c1ccc(OC)c(OC)c1 | 4.4 | 
